Where two headings read alike, the source gives them in different places. Bridge positions count the residues as written; N and C are the ends. Square brackets hold non-standard residues; d marks the D form. Peptide text beside a SMILES is read from it. * marks the point of attachment. ξ: configuration not given here. ξHexahydromandeloyl = O=C(C(O)C1CCCCC1)*; Thr(3ξ) = CC(O)[C@H](N)C(=O)O; Dab = NCC[C@H](N)C(=O)O; Ahp = NCCCCCCC(=O)O
Key:
HK-2 cell line = experiment: In vitro renal cell toxicity assay (resazurin reduction); assay type: cell-based, human
P. aeruginosa ATCC 27853 = conditions: ATCC 27853, in vivo
Acinetobacter baumannii = experiment: MIC, compound in combination with a second agent (broth microdilution); assay type: cell-based; conditions: 1:1 (wt:wt) combination with Rifampicin, MIC = total drug concentration
Method in brief: (§1)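 Broth microdilution with inoculum from 18-24 h Mueller-Hinton agar colonies adjusted to 0.5 McFarland, up to four strains per species. Compound combined 1:1 w/w with second agent (e.g. rifampicin), mass as salt form; MIC is total drug concentration. Duplicates, lower value reported if within 2-fold; modal value for repeat tests.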

Escherichia coli [1] = experiment: as above; assay type: cell-based; conditions: 1:1 (wt:wt) combination with Rifampicin, MIC = total drug concentration
Method in brief: as §1

Klebsiella pneumoniae [2] = experiment: as above; assay type: cell-based; conditions: 1:1 (wt:wt) combination with Rifampicin, MIC = total drug concentration
Method in brief: as §1

Pseudomonas aeruginosa [3] = experiment: as above; assay type: cell-based; conditions: 1:1 (wt:wt) combination with Rifampicin, MIC = total drug concentration
Method in brief: as §1

Escherichia coli [4] = experiment: MIC, sole activity (no second agent); assay type: cell-based; conditions: in the absence of Rifampicin; strain ATCC25922
Method in brief: (§2)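 Compound tested without a second agent in cation-adjusted MHB, up to four strains per species, inoculum at 0.5 McFarland from colonies grown 18-24 h on Mueller-Hinton agar. Run in duplicate, invalid beyond 2-fold disagreement, lower duplicate or modal repeat value given, expressed relative to Polymyxin B.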

Klebsiella pneumoniae [5] = experiment: MIC, sole activity (no second agent); assay type: cell-based; conditions: in the absence of Rifampicin; strain ATCC 4352
Method in brief: as §2

Pseudomonas aeruginosa [6] = experiment: MIC, sole activity (no second agent); assay type: cell-based; conditions: in the absence of Rifampicin; strain ATCC27853
Method in brief: as §2

CCCCCC(N)CC(=O)N[C@H](C(=O)N[C@@H](CCN)C(=O)N[C@H]1CCNC(=O)[C@H](C(C)O)NC(=O)[C@H](CCN)NC(=O)[C@H](CCN)NC(=O)[C@H](CC(C)C)NC(=O)[C@@H](Cc2ccccc2)NC(=O)[C@H](CCN)NC1=O)C(C)O (single isomer, unassigned; isomer 2) [Example A33, 3-(RS)-3-amino octanoyl polymyxin B nonapeptide. Isomer 2]
HK-2 IC50 rel to PMB (HK-2 cell line): 9.7
HK-2 relative to PMB (HK-2 cell line): 9.7
HK-2 toxicity (IC50) compared with PMB (HK-2 cell line): significantly increased recorded IC50 values
Log reduction from vehicle (CFU/g) (P. aeruginosa ATCC 27853; 3.4 mg/kg, 24 h): 3.54 log CFU/g

CC(C)C[C@@H]1NC(=O)[C@@H](Cc2ccccc2)NC(=O)[C@H](CCN)NC(=O)[C@@H](NC(=O)[C@H](CCN)NC(=O)[C@@H](NC(=O)CCCCCCN)C(C)O)CCNC(=O)[C@H](C(C)O)NC(=O)[C@H](CCN)NC(=O)[C@H](CCN)NC1=O (stereo partly shown) [Example 13, 7-Aminoheptanoyl polymyxin B nonapeptide] (H-[Ahp][Thr(3ξ)][Dab][Dab][Dab][dF]L[Dab][Dab][Thr(3ξ)]; lactam 4-C)
MIC A. baumannii ATCC BAA-747 (Acinetobacter baumannii; strain ATCC BAA-747): ≤0.06 micrograms/mL
MIC A. baumannii CCUG57249 (Acinetobacter baumannii; strain CCUG57249): 0.125 micrograms/mL
MIC A. baumannii NCTC 13423 (Acinetobacter baumannii; strain NCTC 13423): ≤0.06 micrograms/mL
MIC A. baumannii NCTC 13424 (Acinetobacter baumannii; strain NCTC 13424): 0.125 micrograms/mL
MIC E. coli ATCC25922 (Escherichia coli [1]; strain ATCC25922): 0.125 micrograms/mL
MIC E. coli NCTC9001 (Escherichia coli [1]; strain NCTC9001): 0.5 micrograms/mL
MIC K. pneumoniae ATCC 4352 (Klebsiella pneumoniae [2]; strain ATCC 4352): 0.125 micrograms/mL
MIC K. pneumoniae ATCC-BAA-2146 (Klebsiella pneumoniae [2]; strain ATCC-BAA-2146): 0.5 micrograms/mL
MIC K. pneumoniae CCUG-59348 (Klebsiella pneumoniae [2]; strain CCUG-59348): 4 micrograms/mL
MIC K. pneumoniae NCTC 13438 (Klebsiella pneumoniae [2]; strain NCTC 13438): 1 micrograms/mL
MIC P. aeruginosa ATCC 27853 (Pseudomonas aeruginosa [3]; strain ATCC 27853): 0.25 micrograms/mL
MIC P. aeruginosa ATCC-47 (Pseudomonas aeruginosa [3]; strain ATCC-47): 0.25 micrograms/mL
MIC P. aeruginosa CCUG 59626 (Pseudomonas aeruginosa [3]; strain CCUG 59626): 0.125 micrograms/mL
MIC E. coli ATCC25922 (Escherichia coli [4]): 1 micrograms/mL
MIC K. pneumoniae ATCC 4352 (Klebsiella pneumoniae [5]): 2 micrograms/mL
MIC P. aeruginosa ATCC 27853 (Pseudomonas aeruginosa [6]): 0.25 micrograms/mL
HK-2 relative to PMB (HK-2 cell line): 14
HK-2 toxicity (IC50) compared with PMB (HK-2 cell line): significantly increased recorded IC50 values

CC(C)C[C@@H]1NC(=O)[C@@H](Cc2ccccc2)NC(=O)[C@H](CCN)NC(=O)[C@@H](NC(=O)[C@H](CCN)NC(=O)[C@@H](NC(=O)[C@H](CCN)NC(=O)C(O)C2CCCCC2)C(C)O)CCNC(=O)[C@H](C(C)O)NC(=O)[C@H](CCN)NC(=O)[C@H](CCN)NC1=O (stereo partly drawn) [Example A3, 2-(RS)-(2-Hydroxy-2-cyclohexyl)ethanoyl polymyxin B decapeptide] (ξHexahydromandeloyl-[Dab][Thr(3ξ)][Dab][Dab][Dab][dF]L[Dab][Dab][Thr(3ξ)]; lactam 4-C)
HK-2 IC50 rel to PMB (HK-2 cell line): 4
Log reduction from vehicle (CFU/g) (P. aeruginosa ATCC 27853; iv, 2 mg/kg, 9 h): 0.12 log CFU/g
Log reduction from vehicle (CFU/g) (P. aeruginosa ATCC 27853; iv, 4 mg/kg, 9 h): 3.34 log CFU/g

Reference: US10407467B2, “Polymyxin derivatives and their use in combination therapy together with different antibiotics” (priority 2013, dated 2019)
